The values that follow come from article PMC5362913, “A new class of inhibitors of the AraC family virulence regulator Vibrio cholerae ToxT” (Scientific Reports, 2017).

For test [1], the system named is V. cholerae classical strain O395. Nature of the test: Autoagglutination assay of O395 cultures. It counts as cell-based, Vibrio cholerae.
In test [2] the target is T1, ToxT (Vibrio cholerae serotype O1, UniProt A5F384).
T1 construct: made in house; host or cells: E. coli BL21-CodonPlus (DE3)-RIL
T1 sequence (A5F384 1-276): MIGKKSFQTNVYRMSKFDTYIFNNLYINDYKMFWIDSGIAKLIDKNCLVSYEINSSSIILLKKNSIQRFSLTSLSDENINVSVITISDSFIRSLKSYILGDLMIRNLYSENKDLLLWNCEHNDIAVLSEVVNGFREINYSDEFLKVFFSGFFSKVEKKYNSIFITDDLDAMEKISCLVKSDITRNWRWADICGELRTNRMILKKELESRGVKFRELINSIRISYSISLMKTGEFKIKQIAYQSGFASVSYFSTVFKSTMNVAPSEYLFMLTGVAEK
The format is biochemical. The following applies: for inhibition of ToxT DNA-binding in dose-response EMSA, compared with virstatin: compounds 10, 1, 0.1 μM, virstatin 100, 10, 1, 0.1 μM.

In test [3] the target is T1, ToxT. Nature of the test: Competition STD NMR with virstatin as indicator. The format is binding. The following applies: 20 μM ToxT, 100 μM virstatin; based on KD of virstatin and decrease in STD signal; read-out: calculated Ki. The protocol: (§1) Virstatin was solubilized in DMSO-d6 and compounds 5a and 3b in DMSO, at working stock concentrations of 35.5 mM, 394 mM, and 50.5 mM, respectively. Purified ToxT in protein buffer (20 mM Tris, 1 mM EDTA, 320 mM NaCl, pH 7.5) was used at a final concentration of 20 μM. All samples contained 50 μM 3-(Trimethylsilyl)-1-propanesulfonic acid sodium salt (TSP) as an internal standard and 5% D2O. All NMR experiments were carried out on a Bruker Avance 600 MHz or 700 MHz spectrometer equipped with a TCI cryogenic probe. Samples were stored at 4 °C prior to acquisition.
Virstatin was used as the STD indicator at a concentration of 100 μM. Compounds 5a and 3b were added at concentrations of 20–200 μM. STD spectra were obtained as above, with a saturation time of 3 seconds. The calculation of the competitive inhibition was as follows[60]:
where CI is the concentration of inhibitor with unknown KD (compound 5a or 3b), CL is the concentration of ligand with known KD (virstatin), KD is that of virstatin, and i is the inhibition expressed as a fraction: [drawing 6] .

Another test relates to tcpA-lacZ. Nature of the test: β-galactosidase reporter assay of tcpA-lacZ transcriptional fusion. It counts as cell-based, Vibrio cholerae. Particulars: 5 μM and 0.5 μM. (In general: A reporter such as luciferase makes a cellular process visible.)
Test [4] addresses T1, ToxT. Briefly: STD NMR determination of KD. The format is binding. The protocol: as §1
KD determination followed the protocol outlined by Angulo et al.[57]. For on-resonance spectra, the protein was saturated at 500 Hz or 583.33 Hz for the 600 MHz and 700 MHz NMR spectrometers, respectively, for 1–4 seconds utilizing a train of 50 ms Gaussian pulses. For off-resonance spectra, the sample was irradiated at −2000 Hz. The total relaxation delay was 7 seconds. Data acquisition consisted of 128 scans and 32,768 points. The STD-effect was calculated by measuring the intensity of the virstatin aromatic proton peaks in the on- and off-resonance spectra:
The KD of virstatin was calculated using Michaelis-Menten kinetics. The STD-AF0 was plotted as a function of the ligand concentration to construct the binding (Langmuir) isotherm: […]

What is called Ki is the dissociation constant of the complex between target and ligand, obtained from inhibition or displacement. As to `Cc1cccc2cccc(/C=C/CC(=O)O)c12` [3b], the “autoagglutination of O395 cultures” value is listed as “inhibited” in test [1] (50 nM) and “completely abolished detectable autoagglutination” in test [1] (0.5 μM). Also, the “inhibition of ToxT DNA-binding in dose-response EMSA, compared with virstatin” value (“inhibition … compared with virstatin” below) on ToxT [2] was “inhibited DNA-binding more strongly than virstatin”. Further, the Ki at ToxT [3] was 10 µM.
For the molecule `Cc1cccc2cccc(CCC(=O)O)c12` [4a], the “autoagglutination of O395 cultures” value is reported as “inhibited” in test [1] (50 nM) and “completely abolished detectable autoagglutination” in test [1] (0.5 μM). In addition, the “inhibition … compared with virstatin” value at ToxT [2] is recorded as “inhibited DNA-binding more strongly than virstatin”.
For `Cc1cccc2cccc(CCCC(=O)O)c12` [4b], the entries for the “autoagglutination of O395 cultures” value in test [1] (50 nM) and in test [1] (0.5 μM) were “inhibited” and “completely abolished detectable autoagglutination”, respectively. In addition, on ToxT [2], the “inhibition … compared with virstatin” value is “inhibited DNA-binding more strongly than virstatin”.
On to `Cc1cccc2c1C(CCC(=O)O)CCC2` (stereo not shown) [5a], for which the “autoagglutination of O395 cultures” value is recorded as “inhibited” in test [1] (50 nM) and “completely abolished detectable autoagglutination” in test [1] (0.5 μM). On ToxT [2], the “inhibition … compared with virstatin” value is on record as “inhibited DNA-binding more strongly than virstatin”. Also, the inhibition constant (Ki) on ToxT [3] was 31 µM.
On to `CCCCCC/C=C\CCCCCCCC(=O)O` [cis-palmitoleic acid, reference compound], for which the “inhibition of tcpA transcription (relative β-galactosidase activity of tcpA-lacZ)” value in the test on tcpA-lacZ was “essentially no effect”. Besides, in test [1] (0.5 μM and 0.05 μM), the “autoagglutination of O395 cultures” value is listed as “no effect”.
On the same counts, the results for `CCCCCCCC/C=C\CCCCCCCC(=O)O` [oleic acid, reference compound] are “essentially no effect” and “no effect”.
By Kd is commonly meant the constant that tells how readily two partners part at equilibrium. Low values mean tighter binding, high ones weaker binding. On to `O=C(O)CCCN1C(=O)c2cccc3cccc(c23)C1=O` [virstatin, reference compound], for which, in test [1] (0.5 μM), the “autoagglutination of O395 cultures” value is on record as “did not”. On ToxT [2] (100 μM compound, 0.78 μM ToxT), the “ToxT binding to tcpA promoter DNA (EMSA)” value is given as “prevented ToxT from binding DNA”. Also, the results for the equilibrium dissociation constant (Kd) on ToxT [4] (from STD spectra of aromatic protons Ha,b) and at ToxT [4] (from STD spectra of aromatic protons He,f) were 483 ± 109 µM and 331 ± 65 µM, respectively.
